Measured values reported in US8044213B2, “Thiazolyl-benzimidazoles” (Hoffmann-La Roche Inc., priority 2008, dated 2011).

Experiments:
[1] = target: T1, GST-Plk1 (Homo sapiens, UniProt P53350); assay: Biochemical Characterization Assay A (HTRF, phosphorylation of GST-p53); details: full-length GST-Plk1, GST-p53 substrate, HTRF signal
T1 construct: Full-length, active GST-Plk1 was purified from Sf9 insect cells; made in house; host or cells: Sf9 insect cells
Protocol: Full-length, active GST-Plk1 was purified from Sf9 insect cells, and full-length GST-p53 was purified in E. coli. Anti-phospho p53 antibody was purchased from Cell Signaling Technology. Europium-conjugated anti-rabbit antibody was purchased from PerkinElmer Life and Analytical Sciences. APC-conjugated anti-GST antibody was purchased from Prozyme.
To two microliters of compound (0.6 nM-4 mM) in DMSO or plain DMSO for control wells, 38 microliters of 20 mM HEPES pH 7, 50 mM NaCl, 10 mM MgCl2, 0.5 mM TCEP, 0.1 mM sodium orthovanadate, 0.1 mg/ml BSA, and 0.05% Triton X-100 (Kinase Assay Buffer) were added. Eight microliters of the compound solution were added to a 384-well black microtiter plate, followed by six microliters of GST-p53 (17 ug/ml) and ATP (333 uM) in Kinase Assay Buffer. Six microliters of GST-Plk1 (3 ug/ml) in Kinase Assay Buffer were then added and the solution incubated at 37° C. for 35 minutes. Six microliters of solution containing 43 mM EDTA to stop the reaction and a 1:600 dilution of anti-phospho-p53 antibody in 20 mM HEPES pH 7, 50 mM NaCl, and 0.5 mg/ml BSA (Antibody Binding Buffer) were added and the solution incubated at 37° C. for 30 minutes. Six microliters of solution containing 9 nM europium-conjugated anti-rabbit antibody and 120 nM APC-conjugated anti-GST antibody in Antibody Binding Buffer were then added and the mixture incubated at room temperature for 1.5 hours. The HTRF signal was read on the Envision reader (PerkinElmer Life and Analytical Sciences).
(§1) The IC50 values for each compound were generated using an Excel template. The % conversion readings of Total and Blank were used as 0% and 100% inhibition. The percent inhibition values of reactions in the presence of compounds were calculated, and plotted against compound concentrations. All data were fitted into a Dose Response One Site model (4 parameter logistic model) as the following: (A+4B−A)/(1+((x/C)^13)))), with A and B as the bottom and top of the curve (highest and lowest inhibition), respectively, and C as IC50 and D as Hill Coefficient of the compound.

[2] = target: T2, PLK1 (Homo sapiens, UniProt P53350); assay: Biochemical Characterization Assay B (peptide substrate, LABCHIP EZ Reader II); details: PLK1, peptide RRRAGALMDASFEEQ-CONH2, % conversion on LABCHIP EZ Reader II
T2 construct: Full-length, active GST-Plk1 was purified from Sf9 insect cells; GST (N); made in house; host or cells: Sf9 insect cells
Protocol: Compounds were serially diluted to 6400, 2133, 711, 237, 79, 26, 8.78, 2.93, 0.98 and 0.33 μM in 100% DMSO. Diluted compound was further diluted 20 fold with Kinase Assay Buffer (KAB). Peptide RRRAGALMDASFEEQ-CONH2 (MW 2090) was diluted to 1.2 μM with KAB and ATP was added to 400 μM. PLK1 stock, prepared as described above, was diluted to 3 μg protein/mL with KAB right before it was added to MATRIX 384-Well Polypropylene Black Plates to start the reaction. 20 μL of KAB diluted compounds (or 5% DMSO in KAB for Total and Blank), 20 μL of KAB diluted peptide with ATP and 40 μL of KAB diluted PLK1 solution (KAB without PLK 1 for Blanks) were transferred to each well of the polypropylene plates. The reaction mixtures were incubated at room temperature for 40 minutes. Reactions were stopped by addition of 10 uL Reaction Stopping Buffer (RSB) to each well. Plates were then read on LABCHIP EZ Reader II from Caliper Life Science.
as §1

T1 sequence (P53350 whole entry): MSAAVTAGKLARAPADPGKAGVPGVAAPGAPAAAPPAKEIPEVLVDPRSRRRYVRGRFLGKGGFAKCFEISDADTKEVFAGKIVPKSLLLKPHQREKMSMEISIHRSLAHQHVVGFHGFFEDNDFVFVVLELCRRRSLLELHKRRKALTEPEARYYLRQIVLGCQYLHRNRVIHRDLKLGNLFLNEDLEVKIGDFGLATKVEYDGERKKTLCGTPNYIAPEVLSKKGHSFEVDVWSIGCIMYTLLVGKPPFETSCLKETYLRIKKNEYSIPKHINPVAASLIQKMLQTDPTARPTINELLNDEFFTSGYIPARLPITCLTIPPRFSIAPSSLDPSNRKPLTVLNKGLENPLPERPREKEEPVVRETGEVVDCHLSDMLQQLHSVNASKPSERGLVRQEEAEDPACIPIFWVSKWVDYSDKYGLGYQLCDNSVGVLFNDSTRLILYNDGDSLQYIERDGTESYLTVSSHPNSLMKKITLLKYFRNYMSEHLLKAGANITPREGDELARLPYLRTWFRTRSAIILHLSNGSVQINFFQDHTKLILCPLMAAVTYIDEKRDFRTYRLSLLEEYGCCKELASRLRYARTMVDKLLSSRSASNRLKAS
T2 sequence (P53350 whole entry): as above

| IC50 [1] | IC50 [2] | SMILES |
| --- | --- | --- |
| 167 nM |  | CN1CCN(Cc2ccc3ncn(-c4nc(-c5ccccc5)c(C(N)=O)s4)c3c2)CC1 [Example 1, 2-[6-(4-Methyl-piperazin-1-ylmethyl)-benzoimidazol-1-yl]-4-phenyl-thiazole-5-carboxylic acid amide] |
| 13 nM |  | CN1CCN(Cc2ccc3ncn(-c4nc(-c5cccc(Cl)c5)c(C(N)=O)s4)c3c2)CC1 [Example 2, 4-(3-Chloro-phenyl)-2-[6-(4-methyl-piperazin-1-ylmethyl)-benzoimidazol-1-yl]-thiazole-5-carboxylic acid amide] |
| 1100 nM |  | CN1CCN(Cc2ccc3c(c2)ncn3-c2nc(-c3cccc(Cl)c3)c(C(N)=O)s2)CC1 [Example 3, 4-(3-Chloro-phenyl)-2-[5-(4-methyl-piperazin-1-ylmethyl)-benzoimidazol-1-yl]-thiazole-5-carboxylic acid amide] |
| 306 nM |  | NC(=O)c1sc(-n2cnc3ccc(CN4CCOCC4)cc32)nc1-c1cccc(Cl)c1 [Example 4, 4-(3-Chloro-phenyl)-2-(6-morpholin-4-ylmethyl-benzoimidazol-1-yl)-thiazole-5-carboxylic acid amide] |
| 91 nM |  | NC(=O)c1sc(-n2cnc3ccc(CN4CCN(CCO)CC4)cc32)nc1-c1cccc(Cl)c1 [Example 5, 4-(3-Chloro-phenyl)-2-{6-[4-(2-hydroxy-ethyl)-piperazin-1-ylmethyl]-benzoimidazol-1-yl}-thiazole-5-carboxylic acid amide] |
| 443 nM |  | CN1CCC(NCc2ccc3ncn(-c4nc(-c5cccc(Cl)c5)c(C(N)=O)s4)c3c2)CC1 [Example 7, 4-(3-Chloro-phenyl)-2-{6-[(1-methyl-piperidin-4-ylamino)-methyl]-benzoimidazol-1-yl}-thiazole-5-carboxylic acid amide] |
| 3440 nM |  | NC(=O)c1sc(-n2cnc3ccc(CN4CCCCC4)cc32)nc1-c1cccc(Cl)c1 [Example 8, 4-(3-Chloro-phenyl)-2-(6-piperidin-1-ylmethyl-benzoimidazol-1-yl)-thiazole-5-carboxylic acid amide] |
| 109 nM |  | CN1CCN(CCc2ccc3ncn(-c4nc(-c5cccc(Cl)c5)c(C(N)=O)s4)c3c2)CC1 [Example 9, 4-(3-Chloro-phenyl)-2-{6-[2-(4-methyl-piperazin-1-yl)-ethyl]-benzoimidazol-1-yl}-thiazole-5-carboxylic acid amide] |
| 2020 nM |  | CN1CCC(NC(=O)c2ccc3ncn(-c4nc(-c5cccc(Cl)c5)c(C(N)=O)s4)c3c2)CC1 [Example 10, 3-[5-Carbamoyl-4-(3-chloro-phenyl)-thiazol-2-yl]-3H-benzoimidazole-5-carboxylic acid (1-methyl-piperidin-4-yl)-amide] |
| 215 nM |  | CN1CCN(C(=O)c2ccc3ncn(-c4nc(-c5cccc(Cl)c5)c(C(N)=O)s4)c3c2)CC1 [Example 11, 4-(3-Chloro-phenyl)-2-[6-(4-methyl-piperazine-1-carbonyl)-benzoimidazol-1-yl]-thiazole-5-carboxylic acid amide] |
| 1140 nM |  | CN1CCN(Cc2ccc3ncn(-c4nc(-c5ccccc5C(F)(F)F)c(C(N)=O)s4)c3c2)CC1 [Example 17, 2-[6-(4-Methyl-piperazin-1-ylmethyl)-benzoimidazol-1-yl]-4-(2-trifluoromethyl-phenyl)-thiazole-5-carboxylic acid amide] |
| > 80000 nM |  | CN1CCN(Cc2ccc3c(c2)ncn3-c2nc(-c3ccc(Cl)cc3)c(C(N)=O)s2)CC1 [Example 18, 4-(4-Chloro-phenyl)-2-[5-(4-methyl-piperazin-1-ylmethyl)-benzoimidazol-1-yl]thiazole-5-carboxylic acid amide] |
| 499 nM |  | CN1CCN(Cc2ccc3ncn(-c4nc(-c5ccc(Cl)cc5)c(C(N)=O)s4)c3c2)CC1 [Example 19, 4-(4-Chloro-phenyl)-2-[6-(4-methyl-piperazin-1-ylmethyl)-benzoimidazol-1-yl]-thiazole-5-carboxylic acid amide] |
| 346 nM |  | CN1CCN(Cc2ccc3ncn(-c4nc(-c5ccccc5Cl)c(C(N)=O)s4)c3c2)CC1 [Example 20, 4-(2-Chloro-phenyl)-2-[6-(4-methyl-piperazin-1-ylmethyl)-benzoimidazol-1-yl]-thiazole-5-carboxylic acid amide] |
| 80 nM |  | NC(=O)c1sc(-n2cnc3ccc(OC4CCNCC4)cc32)nc1-c1cccc(Cl)c1 [Example 21, 4-(3-Chloro-phenyl)-2-[6-(piperidin-4-yloxy)-benzoimidazol-1-yl]-thiazole-5-carboxylic acid amide] |
| 660 nM |  | NC(=O)c1sc(-n2cnc3ccc(OC4CCCCC4)cc32)nc1-c1cccc(Cl)c1 [Example 25, 4-(3-Chloro-phenyl)-2-(6-cyclohexyloxy-benzoimidazol-1-yl)-thiazole-5-carboxylic acid amide] |
| 166 nM |  | NC(=O)c1sc(-n2cnc3ccc(OCCN4CCOCC4)cc32)nc1-c1cccc(Cl)c1 [Example 26, 4-(3-Chloro-phenyl)-2-[6-(2-morpholin-4-yl-ethoxy)-benzoimidazol-1-yl]-thiazole-5-carboxylic acid amide] |
| 21 nM |  | NC(=O)c1sc(-n2cnc3ccc(OCCCN4CCOCC4)cc32)nc1-c1cccc(Cl)c1 [Example 30, 4-(3-Chloro-phenyl)-2-[6-(3-morpholin-4-yl-propoxy)-benzoimidazol-1-yl]-thiazole-5-carboxylic acid amide] |
| 161 nM |  | CN(C)CCCOc1ccc2ncn(-c3nc(-c4cccc(Cl)c4)c(C(N)=O)s3)c2c1 [Example 31, 4-(3-Chloro-phenyl)-2-[6-(3-dimethylamino-propoxy)-benzoimidazol-1-yl]-thiazole-5-carboxylic acid amide] |
| 32 nM |  | CN1CCN(CCCOc2ccc3ncn(-c4nc(-c5cccc(Cl)c5)c(C(N)=O)s4)c3c2)CC1 [Example 33, 4-(3-Chloro-phenyl)-2-{6-[3-(4-methyl-piperazin-1-yl)-propoxy]-benzoimidazol-1-yl}-thiazole-5-carboxylic acid amide] |
| 19 nM | 60 nM | COc1cc2ncn(-c3nc(-c4cccc(Cl)c4)c(C(N)=O)s3)c2cc1OCCCN1CCN(C)CC1 [Example 42, 4-(3-Chloro-phenyl)-2-{5-methoxy-6-[3-(4-methyl-piperazin-1-yl)-propoxy]-benzoimidazol-1-yl}-thiazole-5-carboxylic acid amide] |
| 661 nM |  | CN1CCN(Cc2ccc3ncn(-c4nc(-c5ccc(C(F)(F)F)cc5)c(C(N)=O)s4)c3c2)CC1 [Example 47, 2-[6-(4-Methyl-piperazin-1-ylmethyl)-benzoimidazol-1-yl]-4-(4-trifluoromethyl-phenyl)-thiazole-5-carboxylic acid amide] |
| 59 nM |  | CN1CCN(Cc2ccc3ncn(-c4nc(-c5cccc(C(F)(F)F)c5)c(C(N)=O)s4)c3c2)CC1 [Example 48, 2-[6-(4-Methyl-piperazin-1-ylmethyl)-benzoimidazol-1-yl]-4-(3-trifluoromethyl-phenyl)-thiazole-5-carboxylic acid amide] |
